Experimental data from ChEMBL document CHEMBL1201862, “PubChem BioAssay data set” (2004).
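Five concentrations, 48 hours, 96-well plates. Here, GI50 denotes the concentration required for 50% inhibition of growth.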 The source made the active and inactive calls. No stated cut-off is given here; in the data, active = GI50 up to about 1.1 µM and inactive = higher.

Experiments:
Assay in all cases: NCI tumour cell line growth inhibition, 48 h
EKVX = test system: EKVX
SF-295 = test system: SF-295
HL-60 = test system: HL-60
OVCAR-3 = test system: OVCAR-3
SNB-78 = test system: SNB-78
Malme-3M = test system: Malme-3M
K562 = test system: K562
NCI-H460 = test system: NCI-H460
DLD-1 = test system: DLD-1
SK-MEL-5 = test system: SK-MEL-5
UACC-257 = test system: UACC-257
A549 = test system: A549
IGROV-1 = test system: IGROV-1
SK-MEL-28 = test system: SK-MEL-28
SK-MEL-2 = test system: SK-MEL-2
HCC 2998 = test system: HCC 2998

SMILES	GI50 (EKVX)	GI50 (SF-295)	GI50 (HL-60)	GI50 (OVCAR-3)	GI50 (SNB-78)	GI50 (Malme-3M)	GI50 (K562)	GI50 (NCI-H460)	GI50 (DLD-1)	GI50 (SK-MEL-5)	GI50 (UACC-257)	GI50 (A549)	GI50 (IGROV-1)	GI50 (SK-MEL-28)	GI50 (SK-MEL-2)	GI50 (HCC 2998)
CC(=O)C1(O)CC2(c3ccccc3)C(=O)C1(c1ccccc1)C(c1ccccc1)=C2c1ccccc1 (configuration not stated)	> 100 µM (inactive)	33.4 µM (inactive)	29.4 µM (inactive)	> 100 µM (inactive)	> 100 µM (inactive)	> 100 µM (inactive)	26.1 µM (inactive)	> 100 µM (inactive)	> 100 µM (inactive)	44 µM (inactive)	35.6 µM (inactive)	54.6 µM (inactive)	> 100 µM (inactive)			
CCOC(=O)c1c(-c2[nH]c(C(=O)OCc3ccccc3)c(C)c2C(=O)OCC)[nH]c(C(=O)OCc2ccccc2)c1C	> 100 µM (inactive)	> 100 µM (inactive)		> 100 µM (inactive)	67 µM (inactive)	> 100 µM (inactive)		> 100 µM (inactive)	> 100 µM (inactive)	> 100 µM (inactive)		> 100 µM (inactive)	> 100 µM (inactive)	> 100 µM (inactive)	> 100 µM (inactive)	> 100 µM (inactive)
CC(C)C1CC[C@@H](C)C[C@@]1(O)CC(N)=O (some centres not stated)	> 100 µM (inactive)	> 100 µM (inactive)		> 100 µM (inactive)	> 100 µM (inactive)	> 100 µM (inactive)	> 100 µM (inactive)	> 100 µM (inactive)	> 100 µM (inactive)	> 100 µM (inactive)	> 100 µM (inactive)	> 100 µM (inactive)	> 100 µM (inactive)	> 100 µM (inactive)	> 100 µM (inactive)	> 100 µM (inactive)
O=S(=O)(CC1=NC2C=CC=CC2N=C1)NCc1ccccc1 (configuration not stated)	> 100 µM (inactive)	> 100 µM (inactive)	69.5 µM (inactive)	83.2 µM (inactive)		> 100 µM (inactive)	> 100 µM (inactive)	> 100 µM (inactive)	> 100 µM (inactive)	40 µM (inactive)		> 100 µM (inactive)	> 100 µM (inactive)	> 100 µM (inactive)	> 100 µM (inactive)	0.0156 µM (active)
COc1cc(C(=O)C(CO)Oc2ccccc2OC)ccc1O (configuration not stated)	> 100 µM (inactive)	> 100 µM (inactive)	> 100 µM (inactive)	> 100 µM (inactive)	> 100 µM (inactive)	> 100 µM (inactive)	42.1 µM (inactive)	> 100 µM (inactive)	> 100 µM (inactive)	> 100 µM (inactive)	> 100 µM (inactive)	> 100 µM (inactive)	> 100 µM (inactive)	> 100 µM (inactive)		> 100 µM (inactive)
CC(C)N1CN(C(C(=O)N[C@@H]2C(=O)N3C2SC(C)(C)C3C(=O)O)c2ccc(O)cc2)CSC1=S (some centres not stated)	> 100 µM (inactive)	> 100 µM (inactive)	> 100 µM (inactive)	41.1 µM (inactive)	> 100 µM (inactive)	> 100 µM (inactive)	31.8 µM (inactive)	> 100 µM (inactive)	> 100 µM (inactive)	> 100 µM (inactive)	> 100 µM (inactive)		> 100 µM (inactive)	> 100 µM (inactive)	> 100 µM (inactive)	
N=C(N)NS(=O)(=O)c1ccc(Nc2c3ccccc3nc3c(C(=O)Nc4ccc(S(N)(=O)=O)cc4)ccc(Cl)c23)cc1	> 100 µM (inactive)	> 100 µM (inactive)	47.8 µM (inactive)	> 100 µM (inactive)	65.5 µM (inactive)	> 100 µM (inactive)	> 100 µM (inactive)	> 100 µM (inactive)	> 100 µM (inactive)	> 100 µM (inactive)	> 100 µM (inactive)	> 100 µM (inactive)	> 100 µM (inactive)	> 100 µM (inactive)		> 100 µM (inactive)
N#CCC(=O)N1CCCOCCC1	> 100 µM (inactive)	> 100 µM (inactive)	58.7 µM (inactive)		> 100 µM (inactive)	> 100 µM (inactive)	> 100 µM (inactive)	> 100 µM (inactive)	> 100 µM (inactive)	> 100 µM (inactive)	> 100 µM (inactive)	> 100 µM (inactive)	> 100 µM (inactive)	> 100 µM (inactive)	> 100 µM (inactive)	> 100 µM (inactive)
CC(C)(C)C(=C[S+]([O-])/N=C/c1ccccc1)C(C)(C)C (configuration not stated)	52.1 µM (inactive)			34.1 µM (inactive)	12.2 µM (inactive)	22.3 µM (inactive)	1.23 µM (inactive)	24.8 µM (inactive)	31 µM (inactive)	24.3 µM (inactive)	52 µM (inactive)	33.4 µM (inactive)	25.8 µM (inactive)	> 100 µM (inactive)	15.9 µM (inactive)	
CCC1C(C)c2c([nH]c3ccccc23)C2C(=O)N(c3ccccc3)C(=O)C21 (configuration not stated)	14 µM (inactive)	15.1 µM (inactive)	11.1 µM (inactive)	13.3 µM (inactive)	19.2 µM (inactive)	16.6 µM (inactive)	12.6 µM (inactive)	14.3 µM (inactive)	10.6 µM (inactive)	15.4 µM (inactive)		17.3 µM (inactive)	3.67 µM (inactive)	17.7 µM (inactive)		15.5 µM (inactive)
COc1ccc(-c2cc(=O)c3cc(O)ccc3o2)c(OC)c1OC	12.2 µM (inactive)	24.7 µM (inactive)	15.7 µM (inactive)	18.4 µM (inactive)		66.5 µM (inactive)	24.8 µM (inactive)		36.4 µM (inactive)		32.2 µM (inactive)	35.6 µM (inactive)	42.8 µM (inactive)	53.7 µM (inactive)	28.3 µM (inactive)	35.6 µM (inactive)
C#Cc1c(C)c(/C=C/C(C)=C/C(=O)OC)n(C)c1C	> 100 µM (inactive)	> 100 µM (inactive)	12.1 µM (inactive)	> 100 µM (inactive)	> 100 µM (inactive)	> 100 µM (inactive)	24.2 µM (inactive)		79.4 µM (inactive)		> 100 µM (inactive)	> 100 µM (inactive)	> 100 µM (inactive)			59 µM (inactive)
Cc1ccc(NC(=O)C(=O)CC(=O)c2ccccc2)cc1C	> 100 µM (inactive)	> 100 µM (inactive)		33.6 µM (inactive)	> 100 µM (inactive)	> 100 µM (inactive)		> 100 µM (inactive)	> 100 µM (inactive)	> 100 µM (inactive)	> 100 µM (inactive)	> 100 µM (inactive)	69.8 µM (inactive)	> 100 µM (inactive)		> 100 µM (inactive)
CC1C2C=C(O)C(=O)C(C2=O)C1c1ccccc1 (configuration not stated)	> 100 µM (inactive)	> 100 µM (inactive)		> 100 µM (inactive)	87.5 µM (inactive)	> 100 µM (inactive)	> 100 µM (inactive)		> 100 µM (inactive)	> 100 µM (inactive)	> 100 µM (inactive)	> 100 µM (inactive)	> 100 µM (inactive)	> 100 µM (inactive)	> 100 µM (inactive)	> 100 µM (inactive)
Cc1ccccc1-n1c(N)c(-c2nc3ccccc3[nH]2)sc1=S	53.5 µM (inactive)	22.6 µM (inactive)	26.1 µM (inactive)	20 µM (inactive)	32.4 µM (inactive)	21.5 µM (inactive)	36.6 µM (inactive)		27.3 µM (inactive)	20.8 µM (inactive)	19.3 µM (inactive)	31.3 µM (inactive)	24.8 µM (inactive)	20 µM (inactive)	23.9 µM (inactive)	18.3 µM (inactive)
O=C(CC(=O)N1N=C(n2ccc3ccccc32)CC1c1ccccc1)Nc1ccccc1Cl (configuration not stated)	> 100 µM (inactive)	> 100 µM (inactive)	> 100 µM (inactive)	> 100 µM (inactive)	> 100 µM (inactive)	> 100 µM (inactive)	> 100 µM (inactive)	> 100 µM (inactive)			> 100 µM (inactive)	> 100 µM (inactive)	> 100 µM (inactive)	> 100 µM (inactive)	> 100 µM (inactive)	> 100 µM (inactive)
CN1CCCCC(C(O)(c2ccccc2)c2ccccc2)C1=O (configuration not stated)	> 100 µM (inactive)	> 100 µM (inactive)		> 100 µM (inactive)	> 100 µM (inactive)	> 100 µM (inactive)	> 100 µM (inactive)	80 µM (inactive)	39.4 µM (inactive)	> 100 µM (inactive)	> 100 µM (inactive)	> 100 µM (inactive)	> 100 µM (inactive)	> 100 µM (inactive)	> 100 µM (inactive)	> 100 µM (inactive)
COc1cc(C2C(Cl)C(=O)N2NC(=O)c2ccc(NC(C)=O)cc2)ccc1O (configuration not stated)	> 100 µM (inactive)	> 100 µM (inactive)	> 100 µM (inactive)	> 100 µM (inactive)	> 100 µM (inactive)	> 100 µM (inactive)	> 100 µM (inactive)	> 100 µM (inactive)	> 100 µM (inactive)	> 100 µM (inactive)	> 100 µM (inactive)	> 100 µM (inactive)	> 100 µM (inactive)	> 100 µM (inactive)	> 100 µM (inactive)	
CC1=C(C(=O)Nc2ccccc2)C(c2cccc3ccccc23)C(C(=O)Nc2ccccc2)=C(C)N1	11.8 µM (inactive)	17.5 µM (inactive)	17.1 µM (inactive)	12.8 µM (inactive)	28.7 µM (inactive)	18.8 µM (inactive)	30.4 µM (inactive)		28.2 µM (inactive)	19.3 µM (inactive)	18.2 µM (inactive)	28 µM (inactive)	25.6 µM (inactive)	18 µM (inactive)	17 µM (inactive)	20.4 µM (inactive)
